The source of these data is patent US20100159030A1, “METHODS FOR DETECTING AND MODULATING THE SENSITIVITY OF TUMOR CELLS TO ANTI-MITOTIC AGENTS AND FOR MODULATING TURMORGENICITY” (NewSouth Innovations Pty Limited, priority 2007, published 2010).

Where two headings read alike, the source gives them in different places.

One assay has as its system NSCLC H460 cells. Briefly: Drug-treated clonogenic assay (surviving fraction, ID50) on siRNA/shRNA-transfected cells. It counts as cell-based, Human. The note with it: for IC50: Homo sapiens; for change in drug sensitivity (clonogenic survival): H460. In a few lines:
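Cells transfected with siRNA/shRNA for 24 h, plated (600 Calu-6 or 150 H460 cells/well) and after 4-6 h treated with anti-mitotic drugs for 72 h at 37 °C, then grown drug-free 7-10 days. Crystal-violet colonies counted; surviving fraction corrected for plating efficiency; ID50 = 50% colony reduction vs untreated, mean of ≥4 experiments.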

The next assay has as its system CCRF-CEM Leukaemia cells. It counts as cell-based. The settings on record: 2ME2-resistant sublines. The source says:
The tubulin-binding agent 2-methoxyestradiol (2ME2) binds to β-tubulin near the colchicine-binding site, inhibits microtubule polymerization, and induces mitotic arrest. CCRF-CEM Leukaemia cells that display increasing resistance to 2ME2 were selected, and four of the highly 2ME2 resistant leukaemia sublines were chosen for detailed analysis.

Turning to `CC(=O)O[C@H]1C(=O)[C@@]2(C)[C@H]([C@H](OC(=O)c3ccccc3)[C@]3(O)C[C@H](OC(=O)[C@H](O)[C@@H](NC(=O)c4ccccc4)c4ccccc4)C(C)=C1C3(C)C)[C@]1(OC(C)=O)CO[C@@H]1C[C@@H]2O` [Paclitaxel, paclitaxel], the IC50 with NSCLC H460 cells (NCI-H460, Table 2, 27-mer βIII siRNA Sequence-8 H460 cells, read-out: ID50 ± SEM) amounted to 1.7 ± 0.043 nM; in the assay on NSCLC H460 cells (NCI-H460, Table 2, 27-mer βIII siRNA Sequence-11 H460 cells, read-out: ID50 ± SEM), 1.78 ± 0.07 nM; in the assay on NSCLC H460 cells (NCI-H460, Table 2, Ctrl-1 (27-mer control siRNA) H460 cells, read-out: ID50 ± SEM), 2.89 ± 0.165 nM; with NSCLC H460 cells (NCI-H460, Table 2, mock-transfected H460 cells, read-out: ID50 ± SEM), 2.63 ± 0.136 nM; in the assay on NSCLC H460 cells (NCI-H460, Table 3, H460 Ctrl clone 1, read-out: Paclitaxel ID50 ± SEM), 2.75 ± 0.131 nM; with NSCLC H460 cells (NCI-H460, Table 3, H460 Ctrl clone 2, read-out: Paclitaxel ID50 ± SEM) it was 2.83 ± 0.093 nM. For the same compound, the IC50 in the assay on NSCLC H460 cells (NCI-H460, Table 3, H460 βIII shRNA clone 4, read-out: Paclitaxel ID50 ± SEM) worked out at 1.36 ± 0.087 nM; in the assay with NSCLC H460 cells (NCI-H460, Table 3, H460 βIII shRNA clone 59, read-out: Paclitaxel ID50 ± SEM) it was 1.78 ± 0.07 nM; in the assay with NSCLC H460 cells (NCI-H460, Table 3, H460 βIII shRNA clone 60, read-out: Paclitaxel ID50 ± SEM), 1.58 ± 0.095 nM. Moreover, the “RS (relative sensitivity)” value in the assay with NSCLC H460 cells (Table 2, 27-mer βIII siRNA Sequence-8 H460 cells) is recorded as “(1.55, <0.0001***)”; in the assay on NSCLC H460 cells (Table 2, 27-mer βIII siRNA Sequence-11 H460 cells), “(1.42, 0.0001***)”; in the assay with NSCLC H460 cells (Table 2, Ctrl-1 H460 cells), “(0.91, NS)”; in the assay with NSCLC H460 cells (Table 3, Ctrl clone 2 compared to ctrl clone 1) it was “(0.97, NS)”; in the assay with NSCLC H460 cells (Table 3, βIII shRNA clone 4 compared to ctrl clone 1), “(2.03, <0.0001***)”; with NSCLC H460 cells (Table 3, βIII shRNA clone 59 compared to ctrl clone 1), “(1.55, <0.0001***)”. In the assay with NSCLC H460 cells (Table 3, βIII shRNA clone 60 compared to ctrl clone 1), the “RS (relative sensitivity)” value is listed as “(1.74, <0.0001***)”. Also, the “change in drug sensitivity (clonogenic survival)” value in the assay with NSCLC H460 cells (class II β-tubulin siRNA knockdown vs controls) is given as “did not significantly potentiate the cytotoxicity”; in the assay on NSCLC H460 cells (class IVb β-tubulin siRNA knockdown vs controls), “did not significantly enhance the cytotoxicity”; in the assay with NSCLC H460 cells (βIII-tubulin siRNA silencing vs controls), “significant increase in sensitivity”. For the same compound, the “cross-resistance of the 2ME2-resistant cells” value with CCRF-CEM Leukaemia cells was “not cross resistant”.
